Laboratory results reported in patent publication US6737383B1, “Herbicidal oxadiazolidines” (priority 1999, dated 2004).

Tests used:
[1] = tested on: bedstraw; assay: Test B pre/postemergence bedstraw; type: in vivo, Galium aparine; conditions: Preemergence; for Bedstraw plant response rating: scale 0 to 10, 0 is no effect, 10 is complete control
Outline: (§1)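 Herbicidal effect was estimated by eye on a ten-point control scale after plants spent twelve to sixteen days in a greenhouse following soil or foliar treatment. Foliar sprays targeted plants at one to four leaves; all doses were formulated in a non-phytotoxic solvent with surfactant.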

[2] = tested on: blackgrass; assay: Test B pre/postemergence blackgrass; type: in vivo, Alopecurus myosuroides
Outline: as §1

[3] = tested on: surinam grass; assay: Test B pre/postemergence surinam grass; type: in vivo, Brachiaria decumbens
Outline: as §1

[4] = tested on: cocklebur; assay: Test B pre/postemergence cocklebur; type: in vivo, Xanthium strumarium
Outline: as §1

[5] = tested on: corn; assay: Test B pre/postemergence corn; type: in vivo, Zea mays
Outline: as §1

[6] = tested on: crabgrass; assay: Test B pre/postemergence crabgrass; type: in vivo, Digitaria sanguinalis
Outline: as §1

[7] = tested on: giant foxtail; assay: Test B pre/postemergence giant foxtail; type: in vivo, Setaria faberii
Outline: as §1

[8] = tested on: morningglory; assay: Test B pre/postemergence morningglory; type: in vivo, Ipomoea hederacea
Outline: as §1

[9] = tested on: pigweed; assay: Test B pre/postemergence pigweed; type: in vivo, Amaranthus retroflexus
Outline: as §1

[10] = tested on: rape; assay: Test B pre/postemergence rape; type: in vivo, Brassica napus
Outline: as §1

[11] = tested on: soybean; assay: Test B pre/postemergence soybean; type: in vivo, Glycine max
Outline: as §1

[12] = tested on: sugar beet; assay: Test B pre/postemergence sugar beet; type: in vivo, Beta vulgaris
Outline: as §1

[13] = tested on: velvetleaf; assay: Test B pre/postemergence velvetleaf; type: in vivo, Abutilon theophrasti
Outline: as §1

[14] = tested on: wheat; assay: Test B pre/postemergence wheat; type: in vivo, Triticum aestivum
Outline: as §1

[15] = tested on: wild oat; assay: Test B pre/postemergence wild oat; type: in vivo, Avena fatua
Outline: as §1

[16] = tested on: purple nutsedge; assay: Test B pre/postemergence purple nutsedge; type: in vivo, Cyperus rotundus
Outline: as §1

[17] = tested on: rice; assay: Test B flood test rice; type: in vivo, Oryza sativa
Outline: (§2)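 Each value is a visual injury score relative to controls, with 10 meaning complete control and 0 no effect. Evaluation took place twelve to sixteen days after the 2-leaf-stage plants were treated and kept in the greenhouse.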

[18] = tested on: smallflower flatsedge; assay: Test B flood test smallflower flatsedge; type: in vivo, Cyperus difformis
Outline: as §2

[19] = tested on: duck salad; assay: Test B flood test duck salad; type: in vivo, Heteranthera limosa
Outline: as §2

[20] = tested on: bamyardgrass; assay: Test B flood test barnyardgrass; type: in vivo, Echinochloa crus-galli
Outline: as §2

[21] = Postemergence, Rate 125 g/ha, scale 0 to 10, 0 is no effect, 10 is complete control
[22] = Postemergence, Rate 250 g/ha, scale 0 to 10
[23] = Postemergence, Rate 500 g/ha, scale 0 to 10, 0 is no effect, 10 is complete control
[24] = Preemergence, Rate 62 g/ha, scale of 0 to 10 where 0 is no effect and 10 is complete control
[25] = Preemergence, Rate 125 g/ha, scale 0 to 10, 0 is no effect, 10 is complete control
[26] = Preemergence, Rate 250 g/ha, scale 0 to 10, 0 is no effect, 10 is complete control
[27] = Preemergence, Rate 500 g/ha, scale of 0 to 10 where 0 is no effect and 10 is complete control
[28] = Rate 62 g/ha, Postemergence, scale 0 to 10 (0 no effect, 10 complete control)
[29] = Rate 62 g/ha, flood test species, Pre-emergence, visual evaluation after twelve to sixteen days
[30] = Rate 125 g/ha, under heading Pre-emergence, flood test species, visual evaluation after twelve to sixteen days
[31] = Rate 250 g/ha, Pre-emergence (flood test species), scale 0 to 10, 0 is no effect, 10 is complete control
[32] = Rate 500 g/ha, Pre-emergence section of Table B, 0 to 10 scale (0 no effect, 10 complete control)

Q: What does the source list for `CC(C)N(C(=O)n1oc(=O)n(CCCNC(=O)CCl)c1=O)c1ccccc1` [Compound 493]?
A: Plant response rating, Bedstraw ([1]; Rate 62 g/ha, scale of 0 to 10 where 0 is no effect and 10 is complete control): 0; Bedstraw plant response rating ([1]; Rate 125 g/ha): 0; Bedstraw plant response rating ([1]; Rate 250 g/ha): 0; Bedstraw plant response rating ([1]; Rate 500 g/ha): 0; Blackgrass plant response rating [2, 21]: 0; Blackgrass plant response rating [2, 22]: 0; Plant response rating, Blackgrass [2, 23]: 0; Plant response rating, Blackgrass [2, 24]: 0; Blackgrass plant response rating [2, 25]: 0; Blackgrass plant response rating [2, 26]: 0; Blackgrass plant response rating [2, 27]: 0; Blackgrass plant response rating [2, 28]: 0; B. signalgrass plant response rating [3, 21]: 0; B. signalgrass plant response rating ([3]; Postemergence, Rate 250 g/ha, scale 0 to 10, 0 no effect, 10 complete control): 0; Plant response rating, B. signalgrass [3, 23]: 0; Plant response rating, B. signalgrass [3, 24]: 0; B. signalgrass plant response rating [3, 25]: 0; B. signalgrass plant response rating [3, 26]: 0; B. signalgrass plant response rating ([3]; Preemergence, Rate 500 g/ha, scale 0 to 10, 0 is no effect, 10 is complete control): 0; B. signalgrass plant response rating [3, 28]: 0; Cocklebur plant response rating [4, 21]: 0; Cocklebur plant response rating [4, 22]: 0; Plant response rating, Cocklebur [4, 23]: 0; Plant response rating, Cocklebur [4, 24]: 0; Cocklebur plant response rating [4, 25]: 0; Cocklebur plant response rating [4, 26]: 0; Cocklebur plant response rating [4, 27]: 0; Cocklebur plant response rating [4, 28]: 0; Corn plant response rating [5, 21]: 0; Corn plant response rating [5, 22]: 0; Plant response rating, Corn [5, 23]: 0; Plant response rating, Corn [5, 24]: 0; Corn plant response rating [5, 25]: 0; Corn plant response rating [5, 27]: 0; Corn plant response rating [5, 28]: 0; Crabgrass plant response rating [6, 21]: 0; Crabgrass plant response rating [6, 22]: 0; Plant response rating, Crabgrass [6, 23]: 4; Plant response rating, Crabgrass [6, 24]: 0; Crabgrass plant response rating [6, 25]: 0; Crabgrass plant response rating [6, 27]: 2; Crabgrass plant response rating [6, 28]: 0; Giant foxtail plant response rating [7, 21]: 0; Plant response rating, Giant foxtail [7, 23]: 0; Plant response rating, Giant foxtail [7, 24]: 3; Giant foxtail plant response rating [7, 25]: 3; Giant foxtail plant response rating [7, 27]: 10; Giant foxtail plant response rating [7, 28]: 0; Morningglory plant response rating [8, 21]: 0; Plant response rating, Morningglory [8, 23]: 0; Plant response rating, Morningglory [8, 24]: 0; Morningglory plant response rating [8, 25]: 0; Morningglory plant response rating [8, 27]: 0; Morningglory plant response rating [8, 28]: 0; Redroot pigweed plant response rating [9, 21]: 0; Plant response rating, Redroot pigweed [9, 23]: 0; Plant response rating, Redroot pigweed [9, 24]: 0; Redroot pigweed plant response rating [9, 25]: 0; Redroot pigweed plant response rating [9, 27]: 0; Redroot pigweed plant response rating [9, 28]: 0; Rape plant response rating [10, 21]: 0; Plant response rating, Rape [10, 23]: 0; Plant response rating, Rape [10, 24]: 0; Rape plant response rating [10, 25]: 0; Rape plant response rating [10, 27]: 0; Rape plant response rating [10, 28]: 0; Soybean plant response rating [11, 21]: 0; Plant response rating, Soybean [11, 23]: 2; Plant response rating, Soybean [11, 24]: 0; Soybean plant response rating [11, 25]: 0; Soybean plant response rating [11, 27]: 0; Sugarbeets plant response rating [12, 21]: 0; Plant response rating, Sugarbeets [12, 23]: 0; Plant response rating, Sugarbeets [12, 24]: 0; Sugarbeets plant response rating [12, 25]: 0; Sugarbeets plant response rating [12, 27]: 0; Sugarbeets plant response rating [12, 28]: 0; Velvetleaf plant response rating [13, 21]: 0; Plant response rating, Velvetleaf [13, 23]: 0; Plant response rating, Velvetleaf [13, 24]: 0; Velvetleaf plant response rating [13, 25]: 0; Velvetleaf plant response rating [13, 27]: 0; Velvetleaf plant response rating [13, 28]: 0; Wheat plant response rating [14, 21]: 0; Plant response rating, Wheat [14, 23]: 0; Plant response rating, Wheat [14, 24]: 0; Wheat plant response rating [14, 25]: 0; Wheat plant response rating [14, 27]: 0; Wheat plant response rating [14, 28]: 0; Wild oats plant response rating [15, 21]: 0; Plant response rating, Wild oats [15, 23]: 0; Plant response rating, Wild oats [15, 24]: 0; Wild oats plant response rating [15, 25]: 0; Wild oats plant response rating [15, 27]: 0; Wild oats plant response rating [15, 28]: 0; Nutsedge plant response rating [16, 21]: 0; Plant response rating, Nutsedge [16, 23]: 0; Nutsedge plant response rating [16, 25]: 0; Nutsedge plant response rating [16, 27]: 0; Nutsedge plant response rating [16, 28]: 0; Plant response rating, Rice (0 to 10 scale, 0 is no effect, 10 is complete control) [17, 29]: 0; Rice plant response rating (0 to 10 scale, 0 is no effect, 10 is complete control) [17, 30]: 0; Rice plant response rating [17, 31]: 0; Rice plant response rating [17, 32]: 0; Plant response rating, S. Flatsedge (0 to 10 scale, 0 is no effect, 10 is complete control) [18, 29]: 0; S. Flatsedge plant response rating (0 to 10 scale, 0 is no effect, 10 is complete control) [18, 30]: 0; S. Flatsedge plant response rating [18, 31]: 0; S. Flatsedge plant response rating [18, 32]: 0; Plant response rating, Ducksalad (0 to 10 scale, 0 is no effect, 10 is complete control) [19, 29]: 0; Ducksalad plant response rating (0 to 10 scale, 0 is no effect, 10 is complete control) [19, 30]: 0; Ducksalad plant response rating [19, 31]: 0; Ducksalad plant response rating [19, 32]: 0; Plant response rating, Barnyardgrass (0 to 10 scale, 0 is no effect, 10 is complete control) [20, 29]: 0; Barnyardgrass plant response rating (0 to 10 scale, 0 is no effect, 10 is complete control) [20, 30]: 0; Barnyardgrass plant response rating [20, 31]: 0; Barnyardgrass plant response rating [20, 32]: 0
